Data from publication PMC12766730, “Controlled Self-Immolative Release of β‑Lapachone via an Optimized para-Hydroxybenzyl Linker for Targeted Pancreatic Cancer Therapy” (Journal of the American Chemical Society, 2025).
Where two headings read alike, the source gives them in different places. Each block holds one compound with its values, some of them ahead of it.

Legend:
[1] = Release of β-lapachone (1) from deprotected PHB/PAB linkers (3 or 25) in citrate-phosphate buffers pH 3–10, analytical HPLC; type: physicochemical; details: 3f vs 3a; 25 vs 4
Description: First, the purified mixture of two prodrug diastereomers (16a–j) for each PHB derivative was incubated with β-glucuronidase. This enabled full removal of the glucuronide moiety from both diastereomers of the prodrug within 2–15 min, leaving a mixture of two PHB-β-lapachone enantiomers (3a–j, Figure c). For PAB compound 22, penicillin G amidase was used in place of β-glucuronidase to give a mixture of two PAB-β-lapachone enantiomers (25). The 3 (or 25) solution was then spiked into citrate-phosphate buffers from pH 3–10, and release of 1 from 3 (or 25) was measured at various time points by analytical HPLC. A single peak for the two enantiomers of 3 was observed after glucuronide removal, and thus the measured k obs was for both enantiomers in the mixture.
3 Release rate comparison for PHB and PAB prodrugs. The mechanisms of release for the β-glucuronide–PHB prodrug derivatives (a) and the PAB derivative (b) are shown. β-glucuronidase or penicillin G amidase deprotects the PHB or PAB linkers, yielding 3 or 25, respectively. A 1,6-elimination then occurs, releasing the hydroquinone form of β-lapachone, which then oxidizes into the ortho-quinone. (c) The substituents on the PHB/PAB linker for each derivative are shown and classified into which strategy they employed, lowering phenolate pK a or stabilizing the elimination TS. BLap = β-lapachone in its α-hydroxy ketol form (refer to panel a). The predicted pK a values are also shown, calculated using MolGpKa. (d) The representative HPLC traces of a release experiment for 3g at pH 7 are shown (RT: retention time) normalized to the warfarin (WF) internal standard (IS, RT = 11.6 min). The peak for 3g (RT = 12.5 min) decreases while the peak for 1 (RT = 10.8 min) increases over time. The traces for all other derivatives at each pH are included in Figures S10–S20, S34–S45. (e) The calculated k obs values from these release kinetic experiments for each PHB derivative are plotted versus pH on a logarithmic scale. Derivatives 3a–e were designed to lower the PHB phenol pK a, while derivatives 3f–j were designed to stabilize the 1,6-elimination TS. (f) The first-order reaction rate constants of the PAB derivatives 4 (pink) and 25 (purple) are plotted together with 3a (black) and the best-performing PHB derivatives 3f (cyan) and 3i (dark green) for direct comparison. The derivations of the plotted first-order k obs values from linearized initial velocities measured in triplicate are shown in Figures S23–S33. […]
Over time, the intensity of the 3/25 peak decreased, while the intensity of the 1 peak increased (Figure d). A standard curve for β-lapachone (Figure S22) was prepared, enabling quantification of the released β-lapachone.

[2] = set-up: method as in Dunsmore et al.; details: k obs of compound 4 previously reported, ref Dunsmore et al., cited from earlier work
[3] = set-up: method as in Gong et al.; details: pH 7.4; 5 equiv H2O2; ref Gong et al.; cited from earlier work
[4] = HPLC stability assay of prodrugs in buffers pH 3, 5, 7, 7.4 (PBS), 9 at 37 °C for 72 h without trigger; type: physicochemical; details: after dilution into aqueous buffer
PANC-1 [5] = assay: Reactive oxygen species generation after 24 h treatment, PANC-1; type: cell-based
Description: (§1) 8 Target expression, ROS production, and quinone methide toxicity in PDAC Cell Lines. […] The A549 cell line was used as a positive control for NQO1 enzyme expression, and the HL-60 cell line was used as a positive control for 5-LO enzyme expression. For β-glucuronidase expression, two consecutive technical replicates are shown for each biological replicate, with all three biological replicates represented for both cell lines. […] Results were normalized to baseline cellular ROS activity as 0 and positive control tert-butyl hydrogen peroxide (TBHP) as 100. Adjusted p-values of 0.0012 (**) and <0.0001 (****) are shown for statistically significant comparisons.

PANC-1 [6] = assay: PDAC cell viability after 72 h of treatment, PANC-1; type: cell-based; details: Homo sapiens, PANC-1, exogenous β-glucuronidase added
Description: (§2) All ortho-quinone prodrug derivatives were tested on two pancreatic cancer cell lines, PANC-1 and AsPC-1, to assess efficacy in cell killing (Figures , S88–89, S91, Tables , and S8.1). Exogenous β-glucuronidase was added to the cell media to mimic the extracellular enzyme present in the TME. […] Those derivatives with release rates slower than that of 16a, like 16e, had less efficacy in cells comparatively (Table ).
(§3) 7 PDAC cell viability with prodrug treatment. Representative PANC-1 (a) and AsPC-1 (b) cell viability data of four β-lapachone prodrug derivatives after 72 h of treatment with exogenous β-glucuronidase added. Panels (c, d) show the toxicity of functional prodrugs up to 100 μM in PANC-1 (c) and AsPC-1 (d) cells without exogenous β-glucuronidase enzyme present after 72 h incubation.
(§4) To assess the TW of the prodrug derivatives, we tested each of them in both the PANC-1 and AsPC-1 cell lines at up to 100 μM without the β-glucuronidase enzyme present. In agreement with the HPLC stability assay data, we saw no toxicity in all stable prodrug derivatives up to this concentration (Figure c,d). […] In comparison, all the stable glucuronide prodrug derivatives retained 100% viability at 100 μM. […] It is generally considered that a drug has a good therapeutic safety profile if the TI is greater than 10, which our best derivatives far exceed, signaling that our prodrug is safe to deliver systemically in future in vivo experiments and should not cause any adverse effects in areas where β-glucuronidase is not overexpressed. ,

AsPC-1 [7] = assay: PDAC cell viability after 72 h of treatment, AsPC-1; type: cell-based; details: Homo sapiens, ASPC1, exogenous β-glucuronidase added, average ± SD of biological replicates, read-out: AsPC-1 IC50
Description: as §2, §3, §4

AsPC-1 [8] = assay: Reactive oxygen species generation after 24 h treatment, AsPC-1; type: cell-based
Description: as §1

[9] = HPLC stability assay of prodrugs in buffers pH 3, 5, 7, 7.4 (PBS), 9 at 37 °C for 72 h without trigger; type: physicochemical; details: 37 °C, 72 h, pH 3–9
Description: The diastereomeric mixture of each β-glucuronide–PHB-β-lapachone prodrug (16a–j) and PAB derivative 22 were then tested for stability in citrate-phosphate buffers across a range of pHs (3, 5, 7, 7.4 (PBS), 9) via an HPLC stability assay. For derivatives 16a, 16b, 16d, 16e, 16h, and 16j, when no β-glucuronidase enzyme was added, both diastereomers of 16 were fully stable at 37 °C for 72 h (Figures a,d, S63, S64, S66–68, S71, and S73). […] This premature release was greatest at acidic pH 3 for 16g, with very minimal lapachone release detected at pH 5–9 (Figure c). The released lapachone was quantified and compared to the starting concentration of each prodrug to calculate the percent of the prodrug that had been prematurely released (Figures f,g, S76). […] Therefore, a trade-off exists between ring activation, improving the release rate from 3 while also decreasing prodrug stability, and it rendered 16g clinically disadvantageous.  5 Stability of prodrugs is pH dependent. The representative HPLC traces for (a) a stable prodrug 16a and (b) an unstable prodrug 16g are shown after incubation at 37 °C in pH 7.4 PBS buffer. […] (c) The area of the lapachone peak for 16g normalized to the IS was plotted, displaying substantial growth over time at pH 3. […] For panels c–g, each value is plotted as the mean ± SD of three replicates. The HPLC traces (Figures S50–S62) and peak area graphs (Figures S63–S75) for all other derivatives can be found in the Supporting Information. The stability of 26 was also evaluated from pH 3–9 (Figures d,f–h S86–S87). […] This degradation was the largest at pH 9, with a measurable decrease in the prodrug peak area after 72 h (Figure g). The lapachone released after 72 h was quantified using a standard curve (Tables S6.1–S6.2). At pH 3 and 5, approximately 0.2% of the total prodrug lapachone had been released.

[10] = no extracellular enzyme, compared to β-lapachone

SMILES: COc1cc(O)ccc1CC1(O)C(=O)C2=C(OC(C)(C)CC2)c2ccccc21 (centres unmarked) [3f]
release rate faster than unsubstituted parent [1]: around 2 orders of magnitude

SMILES: CC1(C)CCC2=C(O1)c1ccccc1C(O)(Cc1ccc(N)cc1)C2=O (centres unmarked) [compound 4]
half-life of quinone release at pH 5 ([2]; pH 5): 101 ± 7 h
t 1/2 at pH 6 (drug release half-life) ([2]; pH 6): 931 h

SMILES: COc1cc(O[C@@H]2O[C@H](C(=O)O)[C@@H](O)[C@H](O)[C@H]2O)ccc1CC1(O)C(=O)C2=C(OC(C)(C)CC2)c2ccccc21 (mixture of isomers) [16f]
ROS generation without β-glucuronidase (PANC-1 [5]; [10]): significantly less ROS than β-lapachone alone
ROS generation with β-glucuronidase (PANC-1 [5]; β-glucuronidase added): restored generation of ROS
IC50 (PANC-1 [6]; average ± SD of biological replicates, read-out: PANC-1 IC50): 700 ± 200 nM
IC50 (PANC-1 [6]; representative experiment, read-out: IC50 on PANC-1, representative viability data (Figure 7a)): 600 nM
IC50 (AsPC-1 [7]): 2900 ± 60 nM
ROS generation without β-glucuronidase (AsPC-1 [8]; [10]): significantly less ROS than β-lapachone alone
ROS generation with β-glucuronidase (AsPC-1 [8]; β-glucuronidase added): restored generation of ROS
stability of the prodrug without triggering enzyme [9]: trace β-lapachone release was detected

Continued, in another order:

release rate faster than unsubstituted parent [1]: around 2 orders of magnitude
SMILES: COc1cc(N)ccc1CC1(O)C(=O)C2=C(OC(C)(C)CC2)c2ccccc21 (centres unmarked) [compound 25]

time to complete hydrolysis into boronic acid 26 [4]: ≤ 5 min
SMILES: CC1(C)CCC2=C(O1)c1ccccc1C(O)(Cc1ccc(B3OC(C)(C)C(C)(C)O3)cc1)C2=O (centres unmarked) [compound 24]
time to complete release of 1 [3]: ≤ 2 h
